“And” between values parts separate entries of the source, which are not always exact repeats. Equal values may be shown once.
Tested on: 922993-354-T-J3-PDC complex spheroids, viability
Assay: Anticancer human tumor 922993-354-T-J3-PDC patient-derived endometrial carcinoma cell line growth inhibition [GQUAD]
Conditions: for viability, T/C: stronger effect = lower value
Source text: DNA G-quadruplex Stabilizer Agents in Combinations in Complex Spheroids
A high-throughput screen of multi-cell type tumor spheroids was designed to identify active combinations of DNA G-quadruplex stabilizer agents and targeted small molecules. Complex spheroids include a stromal component modeled by human endothelial cells (HUVEC) and fibroblasts modeled by human mesenchymal stem cells (MSCs). The concentration ranges selected for each drug and investigational agent were based upon clinically achievable concentrations if the clinical Cmax of the agent was known.
Compounds. The drugs and investigational agents: pidnarulex (CX-5461; NSC782164), APTO-253 (NSC789042), BRACO-19 (NSC847499), peposertib (NSC802822), ceralasertib (NSC780249), elimusertib (NSC800525), camonsertib (NSC841442), AZD-1390 (NSC803789), olaparib (NSC753686), talazoparib (NSC767125), ART-558 (NSC835418), sotorasib (NSC818433), MRTX-1133 (NSC836407), SN-38 (NSC673596), topotecan (NSC609699), etoposide (NSC141540), doxorubicin (NSC123127), gemcitabine (NSC613327), 5-fluorouracil (NSC19893), paclitaxel (NSC125973), vemurafenib (NSC761431), panobinostat (NSC761190), R-306465 (JNJ-16241199; NSC773264), adavosertib (NSC754352), TP-3654 (NSC805149), carboplatin (NSC241240), KSQ-4279 (NSC840948), and staurosporine (NSC755774) were obtained from the National Cancer Institute (NCI) Developmental Therapeutics Program Chemical Repository (34). The FDA-approved anticancer drug set is available from the NCI Developmental Therapeutics Program. […] The stock solutions were prepared in dimethyl sulfoxide (DMSO, Sigma-Aldrich, St. Louis, MO, cat. D2650) at 800-fold the tested concentration and stored at -70 degrees C prior to their use. All drugs and investigational agents were tested over a range starting from a high concentration at or near the clinical Cmax and decreasing in half-log increments. If the clinical Cmax for an agent had not been determined, the highest concentration tested was 10 microM.
2.3 Cell Culture. All cells were maintained in an incubator at 37 degrees C and 5% CO2 with 95% humidity. The PDC lines were cultured according to standard operating procedures established by the NCI PDMR. All PDCs were thawed and cultured in Matrigel-coated flasks prepared with a working solution of 1X Ham's F-12 nutrient mix, without supplementation (Invitrogen, cat. 11765054), 100 U/mL penicillin-streptomycin (Invitrogen, cat. 15140122), and 2.5% Matrigel (Corning Inc., cat. 354248) for the first three passages. The 857933-349-R-J2-PDC line was cultured in 6C/Colon 1B media, which includes advanced DMEM/F-12 (Thermo Fisher Scientific, cat. 12634028), 10 mM HEPES (Thermo Fisher Scientific, cat. 15630080), 1X GlutaMAX supplement (Thermo Fisher Scientific, cat. 35050061), 0.1 mg/mL primocin (InvivoGen, cat. ant-pm-2), 10% defined fetal bovine serum, heat inactivated (HyClone Laboratories Inc., cat. SH30070.03HI), 50% L-WRN conditioned media (ATCC, cat. CRL-3276), 1.25 mM N-Acetyl-L-cysteine (Sigma-Aldrich, cat. A9165), 10 mM nicotinamide (Sigma-Aldrich, cat. N0636), 1X B-27 supplement (Thermo Fisher Scientific, cat. 17504044), 1X N-2 supplement (Thermo Fisher Scientific, cat. 17502048), 10 microM Y-27632 dihydrochloride (Tocris Bioscience, cat. 1254), and 50 ng/mL human EGF recombinant protein (Thermo Fisher Scientific, cat. PHG0311). The 485176-168-R4-J1-PDC line was cultured in Panc media, which includes all 6C/Colon 1B media components plus 100 ng/mL human FGF-10 (Thermo Fisher Scientific, cat. 100-26), 500 nM SB-431542 (Selleckchem, cat. S1067), and gastrin (Tocris, cat. 3006).
[…]
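Further: spheroids exposed to compounds for seven days.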
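Wherever viability, T/C is given: 100% = DMSO vehicle control viability.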

Cc1cccc(N(C)C(=O)C2C(O)CCN2c2nc(C)cc(C(F)(F)F)c2C#N)c1 (stereo unspecified)
viability, T/C (compound 0.0316 µM): 90.6% and 93.6% and 97.1%
viability, T/C (compound 0.1 µM): 106% and 90.6% and 105%
viability, T/C (compound 0.316 µM): 83.6% and 87.3% and 122%
viability, T/C (compound 1 µM): 118% and 86.8% and 91.9%
viability, T/C (compound 3.16 µM): 122% and 71.7% and 102%
viability, T/C (compound 10 µM): 110% and 94.2% and 78.3%
IC50 (curve of compound): > 10 µM

CC(=O)O[C@H]1C(=O)[C@@]2(C)[C@H]([C@H](OC(=O)c3ccccc3)[C@]3(O)C[C@H](OC(=O)[C@H](O)[C@@H](NC(=O)c4ccccc4)c4ccccc4)C(C)=C1C3(C)C)[C@]1(OC(C)=O)CO[C@@H]1C[C@@H]2O + Cc1[nH]c2ccc(F)cc2c1-c1nc2c3cccnc3c3ncccc3c2[nH]1
IC50 (curve of first compound, second compound 0.0316 µM): 6.76 µM
IC50 (curve of first compound, second compound 0.1 µM): > 10 µM
IC50 (curve of first compound, second compound 0.316 µM): > 10 µM
IC50 (curve of first compound, second compound 1 µM): 9.27 µM
IC50 (curve of first compound, second compound 3.16 µM): 8.19 µM
IC50 (curve of first compound, second compound 10 µM): > 10 µM
viability, T/C (second compound 0.0316 µM, first compound 0.0316 µM): 109%
viability, T/C (second compound 0.0316 µM, first compound 0.1 µM): 84.6%
viability, T/C (second compound 0.0316 µM, first compound 0.316 µM): 124%
viability, T/C (second compound 0.0316 µM, first compound 1 µM): 115%
viability, T/C (second compound 0.0316 µM, first compound 3.16 µM): 68.4%
viability, T/C (second compound 0.0316 µM, first compound 10 µM): 40.5%
viability, T/C (second compound 0.1 µM, first compound 0.0316 µM): 124%
viability, T/C (second compound 0.1 µM, first compound 0.1 µM): 87.3%
viability, T/C (second compound 0.1 µM, first compound 0.316 µM): 96.6%
viability, T/C (second compound 0.1 µM, first compound 1 µM): 119%
viability, T/C (second compound 0.1 µM, first compound 3.16 µM): 75.7%
viability, T/C (second compound 0.1 µM, first compound 10 µM): 49.6%
viability, T/C (second compound 0.316 µM, first compound 0.0316 µM): 98.8%
viability, T/C (second compound 0.316 µM, first compound 0.1 µM): 90.4%
viability, T/C (second compound 0.316 µM, first compound 0.316 µM): 136%
viability, T/C (second compound 0.316 µM, first compound 1 µM): 89.2%
viability, T/C (second compound 0.316 µM, first compound 3.16 µM): 88.1%
viability, T/C (second compound 0.316 µM, first compound 10 µM): 50.3%
viability, T/C (second compound 1 µM, first compound 0.0316 µM): 103%
viability, T/C (second compound 1 µM, first compound 0.1 µM): 126%
viability, T/C (second compound 1 µM, first compound 0.316 µM): 119%
viability, T/C (second compound 1 µM, first compound 1 µM): 109%
viability, T/C (second compound 1 µM, first compound 3.16 µM): 81.3%
viability, T/C (second compound 1 µM, first compound 10 µM): 47.8%
viability, T/C (second compound 3.16 µM, first compound 0.0316 µM): 104%
viability, T/C (second compound 3.16 µM, first compound 0.1 µM): 115%
viability, T/C (second compound 3.16 µM, first compound 0.316 µM): 124%
viability, T/C (second compound 3.16 µM, first compound 1 µM): 136%
viability, T/C (second compound 3.16 µM, first compound 3.16 µM): 93.6%
viability, T/C (second compound 3.16 µM, first compound 10 µM): 40.9%
viability, T/C (second compound 10 µM, first compound 0.0316 µM): 97.7%
viability, T/C (second compound 10 µM, first compound 0.1 µM): 94%
viability, T/C (second compound 10 µM, first compound 0.316 µM): 117%
viability, T/C (second compound 10 µM, first compound 1 µM): 105%
viability, T/C (second compound 10 µM, first compound 3.16 µM): 86.2%
viability, T/C (second compound 10 µM, first compound 10 µM): 57.7%

Cc1[nH]c2ccc(F)cc2c1-c1nc2c3cccnc3c3ncccc3c2[nH]1
viability, T/C (compound 10 µM): 106% [middle of 12 runs]
IC50 (compound alone, run of 03/18/2024): > 10 µM
IC50 (compound alone, run of 03/26/2024): > 10 µM

CC(=O)O[C@H]1C(=O)[C@@]2(C)[C@H]([C@H](OC(=O)c3ccccc3)[C@]3(O)C[C@H](OC(=O)[C@H](O)[C@@H](NC(=O)c4ccccc4)c4ccccc4)C(C)=C1C3(C)C)[C@]1(OC(C)=O)CO[C@@H]1C[C@@H]2O
viability, T/C (compound 0.0316 µM): 109% and 89.5% and 121%
viability, T/C (compound 0.1 µM): 95% and 93% and 85.9%
viability, T/C (compound 0.316 µM): 84.9% and 103% and 93.4%
viability, T/C (compound 1 µM): 111% and 108% and 102%
viability, T/C (compound 3.16 µM): 75.6% and 78.7% and 84.9%
viability, T/C (compound 10 µM): 36.8% and 47.7% and 50%
IC50 (curve of compound): 6.76 µM and 9.18 µM and > 10 µM

CC1COCCN1c1cc(C2(O)CC3CCC(C2)O3)c2cnn(-c3ccn[nH]3)c2n1 (stereo unspecified)
viability, T/C (compound 0.0316 µM): 93.2% and 97.1% and 107%
viability, T/C (compound 0.1 µM): 80.6% and 62.3% and 68.6%
viability, T/C (compound 0.316 µM): 54.2% and 56.9% and 63.5%
viability, T/C (compound 1 µM): 41.3% and 36% and 37.9%
viability, T/C (compound 3.16 µM): 26.8% and 19.8% and 23.5%
viability, T/C (compound 10 µM): 18.6% and 15.3% and 15.6%
IC50 (curve of compound): 0.514 µM and 0.326 µM and 0.46 µM

— PubChem BioAssay AID2060489 (Molecular Pharmacology Branch, DTP, NCI, 2025)
